According to paper PMC8869097, “Benzothiazole Derivatives as Multifunctional Antioxidant Agents for Skin Damage: Structure–Activity Relationship of a Scaffold Bearing a Five-Membered Ring System” (Antioxidants, 2022):

Columns and labels:
HEK293T cells = experiment: Cytotoxicity on non-cancerous control cells; assay type: cell-based; settings: Homo sapiens, HEK-293T, read-out: IC50 Hek293
Procedure: (§1) A stock solution of the compounds (20 mM in DMSO) was prepared and stored at −18 °C. Then, the compounds were diluted in the cell culture medium and tested starting with the 100 µM concentration as the upper limit. The application of equation (6) allowed to obtain the values of IC50. C1 − [50 − N1%/N2% − N1%] − (C1 − C2),(6) where C1 is the concentration of the compound which inhibits cell proliferation by more than 50%; C2 is the concentration of the compound which inhibits cell proliferation below 50%; N1% represents the number of cells (expressed as a percentage of control without compound) obtained in the presence of C1 and N2% represents the number of cells (as a percentage of control without compound) obtained in the presence of C2.
(§2) Finally, the compounds of this series of benzothiazole derivatives were tested to evaluate their antiproliferative activity in vitro against human T-cell leukemia cell line (CEM), human cervical carcinoma cells (HeLa), human pancreas cancer cells (Mia Paca-2) and human melanoma cells (SK-Mel 5). Non-cancerous HEK293T cells (Normal Kidney Epithelial Cells) were chosen as a control for cytotoxicity and/or selectivity. The results obtained have been summarized in Table 5 (data shown only for the active compounds) and are expressed as IC50 values in μM. The selectivity index (SI) was also reported, determined by comparing the values of IC50 (μM) obtained on healthy cells (HEK 293) with that obtained on tumor cells (CEM, HeLa, Mia-Paca-2 and SK- Mel 5) (Table 5).

[1] = UV spectra of compounds in solution (filtering parameters); assay type: physicochemical
Procedure: The evaluation of the sun protection parameters has been carried out using a UV-Vis spectrophotometer. The absorbance of the solutions of the test compounds dissolved in the different solvents (DMSO, MeOH, DMSO–H2O 4:6, DMSO–H2O 6:4, HE) at a concentration of 0.0015 (±0.000005)% was recorded in the range 290–400 nm using a 1 cm quartz cell at 1 nm intervals. It was decided to evaluate the profile of the compounds in the Peg-7 Glyceryl Cocoate (HE) oil, which is the emollient of choice to solubilize the compounds in a formulation suitable for in vivo analysis. Wavelength absorbance is in relationship with transmittance (T (λ)) from Equation (2) A (λ) = […](2) where T (λ) is the fraction of incident irradiance that is transmitted through a sample.
The three parameters were determined, respectively, in DMSO and in methanol in order to perform a comparison (Table S1).
Since DMSO is a solvent with characteristics very close to those of an oil, the analysis was also carried out in solutions that mimic the possible conditions of a formulation. For this reason, the 4:6 and 6:4 proportions of DMSO–H2O were chosen to evaluate the choice of an oil-in-water or water-in-oil emulsion.

SK-Mel 5 cells = experiment: Antiproliferative activity; assay type: cell-based; settings: Homo sapiens, read-out: IC50 SK-Mel5
Procedure: as §1, §2

[2] = Photostability of formulations after solar simulator irradiation; assay type: physicochemical; settings: for photostability of the filter: formulation on PMMA plate, photostable if residual % >= 80
Procedure: The method adopted to determine the photostability has been previously reported. Each plate was prepared as mentioned above and subjected to a solar irradiation quantified as the minimum UVA dose equivalent to an effective erythema radiant exposure. Transmittance of the sunscreen layer was recorded in the range of 290–400 nm before and after exposure to sunlight.
Equations (3) and (4) made it possible to derive the residual percentage of SPF in vitro (% SPFeff.) and UVA-PF (% UVA-PFeff.), respectively, which, if greater than or equal to 80, can categorize a filter as photostable. %SPFeff. = in vitro SPFafter/in vitro SPFbefore × 100(3) %UVA − PFeff. = UVA − PFafter/UVA − PFbefore × 100.(4)
Photostability is a crucial feature to delineate the efficacy and safety profile of a solar formulation. According to the criteria developed by Garoli et al., photodegradation was measured by recording the pre- and post-irradiation transmittance of PMMA plates with finger-coated formulations, applying the dose of UVA necessary to cause erythema.
The residual efficacy after exposure (%) indicates the loss of sun protection after sun exposure. Equations (3) and (4) made it possible to derive the residual percentage of SPF in vitro (% SPFeff.) and UVA-PF (% UVA-PFeff.), respectively, which, if greater than or equal to 80, make a filter to be categorized as photostable, according to regulation. It can be deduced from the data obtained that compounds 8a and 10a were photostable (Figure 2). […] Compound 9a containing furan in position 2 was photo-unstable with SPF and PF-UVA below 80%, and this could be attributable to photo-instability of its conjugated species. The order of photostability that emerged for the benzothiazole derivatives is: thiophene derivatives> pyrrole derivatives> furan derivatives.

Microsporum canis = experiment: Antidermatophyte activity, plaque growth inhibition; assay type: cell-based, Microsporum canis CBS 131,110; settings: 100 μg/mL, SDA, read-out: % Inhibition Growth M. canis
Procedure: The dermatophytes used in this study were Epidermophyton floccosum var. floccosum (Netherlands) CBS 358.93 strain, Trichophyton tonsurans (Netherlands) CBS 483.76 strain, Trichophyton mentagrophytes (Netherlands) CBS 160.66 strain, Microsporum canis (Iran) CBS 131,110 strain, and Microsporum gypseum (Iran) CBS 130,948 strain. All dermatophytes were maintained at 4 °C as agar slants on SDA. Candida albicans (ATCC 10231) was maintained at 4 °C on SDA plate.
The in vitro antifungal activity against the five selected dermatophytes was evaluated, as previously described, using the plaque growth inhibition method. All compounds were evaluated at the final concentration of 100 µg/mL. The percentages of growth inhibition according to Equation (5) were calculated as the average of three different experiments. I = [(C − T)/C] × 100%,(5) where I is the percentage value of growth inhibition, C is the measure of the diameter of the control circular mycelial inoculum (mm) and T is the extended diameter of the treated mycelial inoculum (mm).
All synthesized benzothiazole derivatives were evaluated to evaluate their in vitro antifungal activity against the five pathogenic dermatophytes that cause the most common dermatomycoses: Microsporum gypseum, Microsporum canis, Trichophyton mentagrophytes, Trichophyton tonsurans and Epidermophyton floccosum. All compounds were tested at a concentration of 100 µg/mL in DMSO, to evaluate the ability to inhibit the growth of dermatophyte cultures in Sabouraud Dextrose Agar (SDA). Briefly, room temperature incubation was performed and dermatophyte inhibition assessed by measuring the colony diameter at each disc for 7 days. The results are shown in Table 3 and were determined as the average of three different experiments.

| SMILES | melting point [°C] | IC50 (HEK293T cells) [µM] | A (absorbance) ([1]; DMSO) | ε (molar extinction coefficient) ([1]; DMSO) | λmax ([1]; DMSO) [nm] | A (absorbance) ([1]; DMSO-H2O 4:6) | ε (molar extinction coefficient) ([1]; DMSO-H2O 4:6) | λmax ([1]; DMSO-H2O 4:6) [nm] | A (absorbance) ([1]; DMSO-H2O 6:4) | ε (molar extinction coefficient) ([1]; DMSO-H2O 6:4) | λmax ([1]; DMSO-H2O 6:4) [nm] | A (absorbance) ([1]; HE (Peg-7 Glyceryl Cocoate)) | ε (molar extinction coefficient) ([1]; HE (Peg-7 Glyceryl Cocoate)) | λmax ([1]; HE (Peg-7 Glyceryl Cocoate)) [nm] | A (absorbance) ([1]; MeOH) | ε (molar extinction coefficient) ([1]; MeOH) | λmax ([1]; MeOH) [nm] | IC50 (SK-Mel 5 cells) [µM] | photostability of the filter [2] | inhibition at 100 µg/mL (Microsporum canis) [%] | also measured |
| --- | --- | --- | --- | --- | --- | --- | --- | --- | --- | --- | --- | --- | --- | --- | --- | --- | --- | --- | --- | --- | --- |
| c1c[nH]c(-c2nc3ccccc3s2)c1 [Compound 8a, 2-(1H-Pyrrol-2-Yl)benzothiazole] | 132 | 68 ± 14 | 2.360 | 29500.00 | 333.40 | 2.35 | 31333.333 | 333.70 | 1.51 | 23239.769 | 334.20 | 0.79 | 12153.846 | 332.80 | 1.540 | 23692.31 | 329.40 | 41 ± 4 | photostable | 25 ± 1.61 | – |
| c1coc(-c2nc3ccccc3s2)c1 [Compound 9a, 2-(Furan-2-Yl)benzothiazole] | 103 | > 100 | 1.620 | 21715.82 | 322.10 | 2.43 | 34863.702 | 322.77 | 1.95 | – | 323.00 | 1.18 | 15817.594 | 320.70 | 2.750 | 32505.91 | 316.40 | 98 ± 2 | photo-unstable | 64 ± 0.72 | residual percentage of SPF in vitro (% SPFeff.) ([2]; after irradiation): below 80%; residual percentage of UVA-PF (% UVA-PFeff.) ([2]; after irradiation): below 80% |
| c1csc(-c2nc3ccccc3s2)c1 [Compound 10a, 2-(Thiophen-2-Yl)benzothiazole] | 99 | > 100 | 0.880 | 12735.17 | 321.80 | 0.75 | 12520.868 | 322.67 | 1.29 | 21535.893 | 323.00 | 1.32 | 14316.703 | 320.30 | 0.760 | 9706.26 | 319.50 | 50 ± 5 | photostable | 66 ± 0.82 | – |
| NS(=O)(=O)c1ccc2nc(-c3cccs3)sc2c1 [Compound 10c, 2-(Thiophen-2-Yl)benzothiazole-6-Sulfonamide] | > 250 | > 100 | 0.890 | 20273.35 | 336.50 | – | – | – | – | – | – | – | – | – | 0.430 | 9704.99 | 333.17 | > 100 | – | 14.3 ± 0.7 | – |
| c1c[nH]c(-c2nc3ccccc3[nH]2)c1 [Lead 10, reference compound] | – | 31 ± 3 | – | – | – | – | – | – | – | – | – | – | – | – | – | – | – | 9.7 ± 1.7 | – | 96.8 ± 3.56 | – |
